Assay [1] can be described thus: inhibitors of PAF-induced NFkB signaling in CF airway cells, dose response, cell-based, uHTS hits, panel, cytotoxicity readout (AID 624344). The note with it: CF bronchial epithelial cells, PAF-induced NFkB reporter inhibition; with PAF, mean of runs.
The subject of a further assay is Cytotoxicity. The assay is described as above. The note with it: CF bronchial epithelial cells, mean of runs.

Structures are written as SMILES. Active and inactive are the calls of the source. How the calls were made is not given here.

As for `COc1cncc(-c2cnc3sc(NCCc4ccccn4)nn23)c1`, the values for the IC50 (in assay [1]; with Cytotoxicity) were 1.53 µM and > 79 µM (inactive), respectively.

Take `CC(=O)N1CC(=O)N=C1SCC(=O)Nc1nc(C)c(-c2ccccc2)s1`: the IC50 in assay [1] is 9.21 µM; in the assay on Cytotoxicity it was 59.7 µM (inactive).

Consider `COC(=O)c1ccc2c(c1)C(C)(C)C(/C=C/c1ccccc1O)=[N+]2C`, for which the IC50 in assay [1] was 5.88 µM; in the assay on Cytotoxicity it was 35.4 µM.

For the molecule `COc1cc(C(=O)c2cc3c(cc2C)OCO3)cc(OC)c1OC`, the IC50 in assay [1] was > 79 µM (inactive); in the assay with Cytotoxicity, 44.5 µM.

With `Cc1ccc(N(C)C(=O)c2cc(S(=O)(=O)N3CCCCC3)c[nH]2)cc1`, the results for the IC50 (in assay [1]; with Cytotoxicity) were 11.5 µM and > 79 µM (inactive), respectively.

Turning to `NC(=O)c1nsc(C(=O)N(c2ccccc2)C(C(=O)NCc2ccc(F)cc2)c2ccc(O)cc2)c1N` (stereo unspecified), the results for the IC50 (in assay [1]; with Cytotoxicity) were 4.75 µM and 8.81 µM, respectively.

As for `CC(C)=CCc1c(O)cc(O)c2c1OC(c1ccc(O)cc1)CC2=O` (stereo unspecified), the figures for the IC50 (in assay [1]; in the assay on Cytotoxicity) were 4.52 µM and 43.6 µM, respectively.

As to `C[C@@H](NC(=O)c1coc(=O)c(Br)c1)c1ccccc1`, the IC50 in assay [1] was 4.1 µM; in the assay with Cytotoxicity it was 4.95 µM.

In the case of `CCCCN(CCCC)c1ncnc2nc[nH]c12`, the IC50 is 5.64 µM in assay [1] and 41.4 µM in the assay with Cytotoxicity.

As for `CC(=O)Nc1ccc(-c2ccnc3c2CC(C(=O)NCc2ccccc2)O3)cc1` (stereo unspecified), the IC50 (in assay [1]; in the assay with Cytotoxicity) was > 79 µM (inactive) in each case.

Consider `Cc1ccc(Sc2c(C=O)c3ccccc3n2C)cc1`, for which the IC50 in assay [1] is 2 µM; in the assay with Cytotoxicity it was 18 µM.

As for `C=C1C(=O)[C@]23C[C@H]1CC[C@H]2[C@]1(C)[C@@H](OC(C)=O)CC[C@@](C)(C(=O)O)[C@H]1C[C@@H]3O`, the IC50 in assay [1] is 0.938 µM; with Cytotoxicity it was 8.28 µM.

Consider `O=C(CCS(=O)(=O)c1ccccc1)N(CCCN1CCOCC1)c1nc2c(F)cccc2s1`, for which the IC50 in assay [1] was 7.63 µM; with Cytotoxicity, 18.1 µM.

With `COc1ccc(/C=C/C(=O)c2cc(F)ccc2OC(=O)c2ccccc2C)cc1OC`, the IC50 entry in assay [1] is “inactive”. Besides, in the assay on Cytotoxicity, the IC50 was 62.5 µM (inactive).

As to `COc1ccc(C2=Nn3c(nnc3-c3ccncc3)SC2)cc1`, the results for the IC50 (in assay [1]; in the assay with Cytotoxicity) were 2.72 µM and 40 µM, respectively.

For the molecule `COc1ccc(OC)c(C2CC(=O)c3c([nH]c(C(=O)OC(C)C)c3C)C2)c1` (stereo unspecified), the IC50 result in assay [1] was “inactive”. Moreover, the IC50 in the assay on Cytotoxicity is > 79 µM (inactive).

For the molecule `CCc1ccccc1NC(=O)CN(C)C(=O)Cn1ncc(Cl)c(Cl)c1=O`, the figures for the IC50 (in assay [1]; with Cytotoxicity) were 6.43 µM and 38 µM, respectively.

In the case of `COc1ccc(CNc2nn3c(-c4cccc(C(=O)N(C)C)c4)cnc3s2)cc1`, the figures for the IC50 (in assay [1]; with Cytotoxicity) were 2.46 µM and 33.6 µM, respectively.

As for `COc1ccccc1/C=C/C(=O)c1c2c(c(C)[nH]c1=O)CCCC2`, the IC50 is 2.94 µM in assay [1] and 41.6 µM in the assay on Cytotoxicity.

With `COc1cccc(NC(=O)CN(C)CC(=O)Nc2ccc(C)c([N+](=O)[O-])c2)c1`, the figures for the IC50 (in assay [1]; with Cytotoxicity) were 6.21 µM and > 79 µM (inactive), respectively.

For `CC(=O)Nc1ccc(NC(=O)COC(=O)c2c3c(nc4ccccc24)CCN(Cc2ccccc2)C3)cc1`, the IC50 was 5.27 µM in assay [1] and 4.16 µM in the assay with Cytotoxicity.

In the case of `CCOC(=O)Cc1nnc2c(Nc3ccc(Cl)cc3)nc3nonc3n12`, the IC50 in assay [1] was 3.23 µM; in the assay on Cytotoxicity it was 1.72 µM.

In the case of `CCCCCCc1cc2cc(C(=O)OCC)c(=O)oc2cc1O`, the IC50 was 7.22 µM in assay [1] and 20.2 µM with Cytotoxicity.

As for `CS(=O)(=O)Nc1ccc(-c2cnc3cccnn23)cc1`, the results for the IC50 (in assay [1]; in the assay with Cytotoxicity) were 2.5 µM and > 79 µM (inactive), respectively.

For the molecule `COc1ccc(-n2nnnc2C(c2cccc(OC)c2OC)N2CCC(n3c(=O)[nH]c4ccccc43)CC2)cc1` (stereo unspecified), the IC50 in assay [1] is 6.65 µM; in the assay on Cytotoxicity it was 9.39 µM.

`COc1ccc(-c2cnc3c(NC=O)cc(-c4ccc(C(=O)N5CCOCC5)cc4)cn23)cc1OC`: the IC50 was 2.94 µM in assay [1] and 14.7 µM in the assay on Cytotoxicity.

With `CC1CCc2sc3ncnc(N4CCOCC4)c3c2C1` (stereo unspecified), the values for the IC50 (in assay [1]; in the assay with Cytotoxicity) were 5.9 µM and 7.61 µM, respectively.

For `CCN(CC)CCN(C(=O)CCS(=O)(=O)c1ccccc1)c1nc2c(C)cc(C)cc2s1`, the IC50 in assay [1] is 5.98 µM; in the assay on Cytotoxicity, 8 µM.

With `COc1cc(-c2cc(C(=O)Nc3ccc(S(=O)(=O)NCc4ccco4)cc3)c3ccccc3n2)cc(OC)c1OC`, the results for the IC50 (in assay [1]; in the assay with Cytotoxicity) were 3.96 µM and 7.44 µM, respectively.

In the case of `Cc1ccsc1CN(C)c1ncnc2ccc(-c3ccoc3)cc12`, the results for the IC50 (in assay [1]; in the assay with Cytotoxicity) were 0.376 µM and 47 µM, respectively.

As to `O=C(Nc1ccc2c(c1)OCCO2)c1cc(-c2ccccn2)nc2ccc(Br)cc12`, the IC50 entry in assay [1] is “inactive”. The IC50 in the assay on Cytotoxicity was 49.4 µM.

As for `COc1ccc(-n2ncc3c(N4CCN(Cc5ccccc5)CC4)ncnc32)cc1`, the IC50 in assay [1] was 3.85 µM; in the assay on Cytotoxicity, 6.95 µM.

Consider `Nc1nccc(-c2ccc(-n3cnc4ccccc43)cc2)n1`, for which the IC50 in assay [1] is 2.13 µM; in the assay on Cytotoxicity, 49.1 µM.

Source of the values: PubChem BioAssay AID624344 (Sanford-Burnham Center for Chemical Genomics, 2012).
